As a reminder, the melting point is the temperature of the solid-liquid transition.

Our source for the melting point values is US11098038B2, “Imidazole-based anticancer agents and derivatives thereof, and methods of making and using same” (The University of Toledo, priority 2017, dated 2021).

The molecule `O=C(Cc1ccc(/C=C/C(=O)c2ncc[nH]2)cc1)Nc1cccc2ccccc12` [Compound 17, (E)-2-(4-(3-(1H-imidazol-2-yl)-3-oxoprop-1-en-1-yl)phenyl)-N-(naphthalen-1-yl)acetamide] yielded a melting point of 229 to 230 °C.
For the molecule `COc1ccc(NC(=O)Cc2ccc(/C=C/C(=O)c3ncc[nH]3)cc2)cc1` [Compound 19, (E)-2-(4-(3-(1H-imidazol-2-yl)-3-oxoprop-1-en-1-yl)phenyl)-N-(4-methoxyphenyl) acetamide], the melting point fell in the range of 224 to 226 °C.
`O=C(Cc1ccc(/C=C/C(=O)c2ncc[nH]2)cc1)Nc1ccccc1` [Compound 21, (E)-2-(4-(3-(1H-imidazol-2-yl)-3-oxoprop-1-en-1-yl)phenyl)-N-phenylacetamide] yielded a melting point of 211 to 214 °C.
To `O=C(Cc1ccc(/C=C/C(=O)c2ncc[nH]2)cc1)NC1CCCCC1` [Compound 23, (E)-2-(4-(3-(1H-imidazol-2-yl)-3-oxoprop-1-en-1-yl)phenyl)-N-cyclohexylacetamide] belongs 208.5 °C; to `Cn1ccnc1C(=O)/C=C/c1ccc(CC(=O)Nc2ccc(C(F)(F)F)cc2)cc1` [Compound 26, (E)-2-(4-(3-(1-methyl-1H-imidazol-2-yl)-3-oxoprop-1-en-1-yl)phenyl)-N-(4-(trifluoromethyl)phenyl) acetamide], 222 to 226 °C.
